Source: patent publication US7417156B2, “Orally active, antimalarial, anticancer, artemisinin-derived trioxane dimers” (Johns Hopkins University, priority 2002, dated 2008)

Tests used:
NCI/ADR-RES = assay: NCI 60 cell line panel screen (SRB); format: cell-based, human
IGROVI = assay: NCI 60 cell line panel screen (SRB); format: cell-based, human
M14 = assay: NCI 60 cell line panel screen (SRB); format: cell-based, human
SF-268 = assay: NCI 60 cell line panel screen (SRB); format: cell-based, human
NCI-H522 = assay: NCI 60 cell line panel screen (SRB); format: cell-based, human
MCF7 = assay: NCI 60 cell line panel screen (SRB); format: cell-based, human
UO-31 = assay: NCI 60 cell line panel screen (SRB); format: cell-based, human
HT29 = assay: NCI 60 cell line panel screen (SRB); format: cell-based, human
A549/ATCC = assay: NCI 60 cell line panel screen (SRB); format: cell-based, human
[1] = test system: chloroquine-sensitive P. falciparum (NF54); assay: Antimalarial activity in vitro, [3H]hypoxanthine incorporation; format: cell-based; conditions: Table I; NF54 strain; read-out: IC50
60 cell line panel = format: cell-based
OVCAR-3 = assay: NCI 60 cell line panel screen (SRB); format: cell-based, human
HCT-15 = assay: NCI 60 cell line panel screen (SRB); format: cell-based, human
BT-549 = assay: NCI 60 cell line panel screen (SRB); format: cell-based, human
PC-3 = assay: NCI 60 cell line panel screen (SRB); format: cell-based, human
MALME-3M = assay: NCI 60 cell line panel screen (SRB); format: cell-based, human
HCT-116 = assay: NCI 60 cell line panel screen (SRB); format: cell-based, human
MDA-MB-435 = assay: NCI 60 cell line panel screen (SRB); format: cell-based, human
NCI-H322M = format: cell-based
[2] = mean value over the 60 cell line panel

Structure (SMILES): C[C@@H]1CC[C@H]2[C@@H](C)C(CC(O)(CC3OC4O[C@]5(C)CC[C@H]6[C@H](C)CC[C@@H]([C@H]3C)C46OO5)c3ccc(C(=O)O)cc3)OC3O[C@]4(C)CCC1C32OO4 (some centres unmarked) [Compound 11b, bis-trioxane tertiary alcohol benzoic acid]
- Log10GI50 (NCI/ADR-RES; Breast Cancer, NCI/ADR-RES): −6.84
- Log10LC50 (NCI/ADR-RES; NCI/ADR-RES (Breast Cancer), LC50: PG=−50): >−4.30 log10M
- Log10TGI50 (NCI/ADR-RES; NCI/ADR-RES (Breast Cancer), TGI: PG=0): >−4.30 log10M
- Log10LC50 (IGROVI; IGROVI (Ovarian Cancer), LC50: PG=−50): >−4.30 log10M
- Log10TGI50 (IGROVI; IGROVI (Ovarian Cancer), TGI: PG=0): −4.50 log10M
- Log10GI50 (IGROVI; Ovarian Cancer, IGROVI): −5.98
- Log10LC50 (M14; M14 (Melanoma), LC50: PG=−50): >−4.30 log10M
- Log10TGI50 (M14; M-14 (Melanoma), TGI: PG=0): >−4.30 log10M
- Log10GI50 (M14; Melanoma, M14): −7.81
- Log10GI50 (SF-268; CNS Cancer, SF-268): −7.72
- Log10LC50 (SF-268; SF-268 (CNS Cancer), LC50: PG=−50): >−4.30 log10M
- Log10TGI50 (SF-268; SF-268 (CNS Cancer), TGI: PG=0): >−4.30 log10M
- Log10TGI50 (NCI-H522; NCI-H522 (Non-Small Cell Lung Cancer), TGI: PG=0): >−4.30 log10M
- Log10LC50 (NCI-H522; NCI-H-522 (Non-Small Cell Lung Cancer), LC50: PG=−50): >−4.30 log10M
- Log10GI50 (NCI-H522; Non-Small Cell Lung Cancer, NCI-H522): −6.54
- Log10GI50 (MCF7; Breast Cancer, MCF7): <−8.30
- Log10LC50 (MCF7; MCF7 (Breast Cancer), LC50: PG=−50): >−4.30 log10M
- Log10TGI50 (MCF7; MCF7 (Breast Cancer), TGI: PG=0): >−4.30 log10M
- Log10GI50 (UO-31; Renal Cancer, UO-31): −6.78
- Log10LC50 (UO-31; UO-31 (Renal Cancer), LC50: PG=−50): >−4.30 log10M
- Log10TGI50 (UO-31; UO-31 (Renal Cancer), TGI: PG=0): >−4.30 log10M
- Log10GI50 (HT29; Colon Cancer, HT29): <−8.30
- Log10LC50 (HT29; HT29 (Colon Cancer), LC50: PG=−50): >−4.30 log10M
- Log10TGI50 (HT29; HT29 (Colon Cancer), TGI: PG=0): >−4.30 log10M
- Log10LC50 (A549/ATCC; A549/ATCC (Non-Small Cell Lung Cancer), LC50: PG=−50): >−4.30 log10M
- Log10TGI50 (A549/ATCC; A549/ATCC (Non-Small Cell Lung Cancer), TGI: PG=0): >−4.30 log10M
- Log10GI50 (A549/ATCC; Non-Small Cell Lung Cancer, A549/ATCC): −5.69
- IC50 [1]: 2.1 nM
- Log10GI50 Delta (60 cell line panel): 0.93
- Log10GI50 Range (60 cell line panel): 3.52
- Log10LC50 Delta (60 cell line panel; 60 cell line panel): 1.58
- Log10LC50 Range (60 cell line panel; 60 cell line panel): 1.65
- Log10TGI50 Delta (60 cell line panel; 60 cell line panel): 3.18
- Log10TGI50 Range (60 cell line panel; 60 cell line panel): 4.00
- growth inhibition in words (60 cell line panel; colon cancer KM12, ovarian cancer OVCAR 3, breast cancer MDA-MB-435): selectively and strong inhibitory
- Log10GI50 MG MID (60 cell line panel; mean over panel): −7.37
- Log10LC50 MG MID (60 cell line panel; [2]): −4.37 log10M
- Log10TGI50 MG MID (60 cell line panel; [2]): −5.12 log10M
- Log10LC50 (OVCAR-3; OVCAR-3 (Ovarian Cancer), LC50: PG=−50): >−4.30 log10M
- Log10TGI50 (OVCAR-3; OVCAR-3 (Ovarian Cancer), TGI: PG=0): −8.07 log10M
- Log10GI50 (OVCAR-3; Ovarian Cancer, OVCAR-3): <−8.30
- Log10GI50 (HCT-15; Colon Cancer, HCT-15): <−8.30
- Log10LC50 (HCT-15; HCT-15 (Colon Cancer), LC50: PG=−50): >−4.30 log10M
- Log10TGI50 (HCT-15; HCT-15 (Colon Cancer), TGI: PG=0): −6.70 log10M
- Log10LC50 (BT-549; BT-549 (Breast Cancer), LC50: PG=−50): >−4.30 log10M
- Log10TGI50 (BT-549; BT-549 (Breast Cancer), TGI: PG=0): −5.32 log10M
- Log10GI50 (BT-549; Breast Cancer, BT-549): −5.82
- Log10LC50 (PC-3; PC-3 (Prostate Cancer), LC50: PG=−50): >−4.30 log10M
- Log10TGI50 (PC-3; PC-3 (Prostate Cancer), TGI: PG=0): −5.75 log10M
- Log10GI50 (PC-3; Prostate Cancer, PC-3): <−8.30
- Log10LC50 (MALME-3M; MALME-3M (Melanoma), LC50: PG=−50): >−4.30 log10M
- Log10TGI50 (MALME-3M; MALME-3M (Melanoma), TGI: PG=0): −7.46 log10M
- Log10GI50 (MALME-3M; Melanoma, MALME-3M): <−8.30
- Log10GI50 (HCT-116; Colon Cancer, HCT-116): <−8.30
- Log10LC50 (HCT-116; HCT-116 (Colon Cancer), LC50: PG=−50): >−4.30 log10M
- Log10TGI50 (HCT-116; HCT-116 (Colon Cancer), TGI: PG=0): −4.40 log10M
- Log10GI50 (MDA-MB-435; Breast Cancer, MDA-MB-435): −8.16
- Log10LC50 (MDA-MB-435; MDA-MB-435 (Breast Cancer), LC50: PG=−50): >−4.30 log10M
- Log10TGI50 (MDA-MB-435; MDA-MB-435 (Breast Cancer), TGI: PG=0): >−4.30 log10M
- Log10GI50 (NCI-H322M): −6.72
- Log10TGI50 (NCI-H322M): >−4.30 log10M
- Log10LC50 (NCI-H322M; NCI-H322M (Non-Small Cell Lung Cancer), LC50: PG=−50): >−4.30 log10M
